Measured values: the NIST ThermoML archive (doi:10.1021/acs.jced.6b00128)
± gives the expanded uncertainty stated by the source.

Details: Liquid, Falling or rolling sphere viscometry

## CCCCC(CC)COC(=O)c1ccc(C(=O)OCC(CC)CCCC)c(C(=O)OCC(CC)CCCC)c1 (stereo not drawn) [tris(2-ethylhexyl) trimellitate]
315.1 K, 8710 kPa
  viscosity: 92.64 ± 3.6 mPa·s
315.1 K, 23090 kPa
  viscosity: 125 ± 5.5 mPa·s
315.1 K, 36550 kPa
  viscosity: 163.5 ± 8.2 mPa·s
315.1 K, 69620 kPa
  viscosity: 301.3 ± 20 mPa·s
315.1 K, 71420 kPa
  viscosity: 310.8 ± 20 mPa·s
315.1 K, 104200 kPa
  viscosity: 540.6 ± 44 mPa·s
315.1 K, 138800 kPa
  viscosity: 934 ± 93 mPa·s
347.1 K, 9180 kPa
  viscosity: 22.72 ± 0.97 mPa·s
347.1 K, 22490 kPa
  viscosity: 28.88 ± 1.3 mPa·s
347.1 K, 36420 kPa
  viscosity: 36.54 ± 1.7 mPa·s
347.1 K, 70160 kPa
  viscosity: 62.43 ± 3 mPa·s
347.1 K, 70370 kPa
  viscosity: 62.32 ± 3 mPa·s
347.1 K, 104100 kPa
  viscosity: 101.1 ± 5.5 mPa·s
347.1 K, 138500 kPa
  viscosity: 159.1 ± 10 mPa·s
347.1 K, 173500 kPa
  viscosity: 244.9 ± 14 mPa·s
347.1 K, 219900 kPa
  viscosity: 420.8 ± 31 mPa·s
387.5 K, 11780 kPa
  viscosity: 7.262 ± 0.27 mPa·s
387.5 K, 22080 kPa
  viscosity: 8.542 ± 0.32 mPa·s
387.5 K, 36110 kPa
  viscosity: 10.48 ± 0.4 mPa·s
387.5 K, 70650 kPa
  viscosity: 16.6 ± 0.66 mPa·s
387.5 K, 72750 kPa
  viscosity: 17.21 ± 0.67 mPa·s
387.5 K, 104700 kPa
  viscosity: 25.32 ± 1 mPa·s
387.5 K, 140100 kPa
  viscosity: 37.04 ± 1.6 mPa·s
387.5 K, 173400 kPa
  viscosity: 51.68 ± 2.3 mPa·s
387.5 K, 215400 kPa
  viscosity: 77.27 ± 3.1 mPa·s
428.6 K, 9400 kPa
  viscosity: 3.143 ± 0.11 mPa·s
428.6 K, 21670 kPa
  viscosity: 3.632 ± 0.12 mPa·s
428.6 K, 36940 kPa
  viscosity: 4.46 ± 0.15 mPa·s
428.6 K, 70470 kPa
  viscosity: 6.643 ± 0.23 mPa·s
428.6 K, 105400 kPa
  viscosity: 9.7 ± 0.33 mPa·s
428.6 K, 139500 kPa
  viscosity: 13.2 ± 0.46 mPa·s
428.6 K, 172300 kPa
  viscosity: 17.63 ± 0.62 mPa·s
428.6 K, 203200 kPa
  viscosity: 22.51 ± 0.72 mPa·s
428.6 K, 237600 kPa
  viscosity: 29.74 ± 0.96 mPa·s
477.8 K, 11620 kPa
  viscosity: 1.649 ± 0.053 mPa·s
477.8 K, 23680 kPa
  viscosity: 1.916 ± 0.062 mPa·s
477.8 K, 37690 kPa
  viscosity: 2.232 ± 0.072 mPa·s
477.8 K, 37760 kPa
  viscosity: 2.235 ± 0.072 mPa·s
477.8 K, 70980 kPa
  viscosity: 3.227 ± 0.11 mPa·s
477.8 K, 105500 kPa
  viscosity: 4.336 ± 0.14 mPa·s
477.8 K, 106000 kPa
  viscosity: 4.336 ± 0.14 mPa·s
477.8 K, 139300 kPa
  viscosity: 5.743 ± 0.19 mPa·s
477.8 K, 174200 kPa
  viscosity: 7.352 ± 0.24 mPa·s
477.8 K, 196800 kPa
  viscosity: 8.536 ± 0.29 mPa·s
477.8 K, 219300 kPa
  viscosity: 10.02 ± 0.32 mPa·s
477.8 K, 240800 kPa
  viscosity: 11.62 ± 0.39 mPa·s
527.4 K, 10410 kPa
  viscosity: 1.015 ± 0.033 mPa·s
527.4 K, 23110 kPa
  viscosity: 1.161 ± 0.037 mPa·s
527.4 K, 36430 kPa
  viscosity: 1.333 ± 0.043 mPa·s
527.4 K, 69910 kPa
  viscosity: 1.79 ± 0.058 mPa·s
527.4 K, 105200 kPa
  viscosity: 2.466 ± 0.08 mPa·s
527.4 K, 105700 kPa
  viscosity: 2.469 ± 0.08 mPa·s
527.4 K, 139000 kPa
  viscosity: 3.097 ± 0.1 mPa·s
527.4 K, 172900 kPa
  viscosity: 3.835 ± 0.13 mPa·s
527.4 K, 200700 kPa
  viscosity: 4.578 ± 0.15 mPa·s
527.4 K, 201600 kPa
  viscosity: 4.601 ± 0.15 mPa·s
527.4 K, 223700 kPa
  viscosity: 5.224 ± 0.17 mPa·s
527.4 K, 241600 kPa
  viscosity: 5.761 ± 0.19 mPa·s
